# In US20240165047A1, “Use Of Honokiol In Preparation Of Drug For Treating Meningioma” (Chengdu Jinrui Foundation Biotech Co., Ltd., priority 2021, published 2024):
# Legend:
# meningioma = experiment: Phase I clinical trial of honokiol liposome for injection: cranial MR re-examination of meningioma patients, RANO standard; assay type: in vivo, human; conditions: summary statement of the clinical trials
# Excerpt: (§1) Description of the Subject: • person; • on Jan. […] 27, 2018, the subject underwent the resection of a deep skull bottom lesion, endothelial meningoma, and local lesion being hemangioma-type meningoma, accompanied by bleeding, showing the non-typical meningioma, infiltrating bone tissue, comprehensive to malignant meningoma; immunohistochemistry: EMA (positive), PR (scattered in a little positive), SSTR (focal positive), CD34 (blood vessel positive), CD99 (+), S100 (-), Syn (-), CgA (-), CK (occasionally positive), Ki67 (about 8-20%); • in February 2019, the subject was treated for intracranial infection; • in June 2019, the subject received whole brain radiotherapy; • on Mar. 5, 2021, the subject re-examined the cranial MR and the tumor recurred; in order to further treat, at the outpatient of Beijing […] […]
# [1] = Phase I clinical trial of clinical safety and tolerance of honokiol liposome for injection, safety analysis set (patients with advanced malignant solid tumors); assay type: in vivo, human; conditions: summary statement of the clinical trials
# Excerpt: as §1
compound,measurement,setting,value
"C=CCc1ccc(O)c(-c2ccc(O)c(CC=C)c2)c1 [honokiol, 3′,5-di-2-propenyl-1,1′-biphenyl-2,4′-diphenol]",overall efficacy against meningioma in clinical trials,meningioma,effectively treat the meningioma
same,overall safety and tolerance in clinical trials,[1],good safety and tolerance
